The numbers were not newly measured in patent publication US20230346789A1, “METHODS OF TREATING ENHANCING BRAIN TUMORS USING COMBINATION THERAPY” (MSD International GmbH, priority 2022, published 2023), which cites them from elsewhere.

Where two headings read alike, the source gives them in different places.

Data set [1] deals with Recurrent or Progressive Glioma. Particulars: monotherapy.

For `C[C@@H](Nc1nc(N[C@H](C)C(F)(F)F)nc(-c2cccc(Cl)n2)n1)C(F)(F)F` [vorasidenib, 6-(6-chloropyridin-2-yl)-N^2,N^4-bis((R)-1,1,1-trifluoropropan-2-yl)-1,3,5-triazine-2,4-diamine], the clinical efficacy result was “clinical activity and prolonged disease control” in data set [1] (patients with non-enhancing gliomas); “only limited efficacy” in data set [1] (patients with recurrent enhancing gliomas).
Regarding “pembrolizumab: humanized immunoglobulin G4 (IgG4) monoclonal antibody blocking the programmed death receptor-1 (PD1)”, the preclinical safety profile result was “acceptable”.
